For test [1], the target named is T1, Glucocorticoid receptor (Homo sapiens, UniProt P04150).
T1 sequence (P04150 whole entry): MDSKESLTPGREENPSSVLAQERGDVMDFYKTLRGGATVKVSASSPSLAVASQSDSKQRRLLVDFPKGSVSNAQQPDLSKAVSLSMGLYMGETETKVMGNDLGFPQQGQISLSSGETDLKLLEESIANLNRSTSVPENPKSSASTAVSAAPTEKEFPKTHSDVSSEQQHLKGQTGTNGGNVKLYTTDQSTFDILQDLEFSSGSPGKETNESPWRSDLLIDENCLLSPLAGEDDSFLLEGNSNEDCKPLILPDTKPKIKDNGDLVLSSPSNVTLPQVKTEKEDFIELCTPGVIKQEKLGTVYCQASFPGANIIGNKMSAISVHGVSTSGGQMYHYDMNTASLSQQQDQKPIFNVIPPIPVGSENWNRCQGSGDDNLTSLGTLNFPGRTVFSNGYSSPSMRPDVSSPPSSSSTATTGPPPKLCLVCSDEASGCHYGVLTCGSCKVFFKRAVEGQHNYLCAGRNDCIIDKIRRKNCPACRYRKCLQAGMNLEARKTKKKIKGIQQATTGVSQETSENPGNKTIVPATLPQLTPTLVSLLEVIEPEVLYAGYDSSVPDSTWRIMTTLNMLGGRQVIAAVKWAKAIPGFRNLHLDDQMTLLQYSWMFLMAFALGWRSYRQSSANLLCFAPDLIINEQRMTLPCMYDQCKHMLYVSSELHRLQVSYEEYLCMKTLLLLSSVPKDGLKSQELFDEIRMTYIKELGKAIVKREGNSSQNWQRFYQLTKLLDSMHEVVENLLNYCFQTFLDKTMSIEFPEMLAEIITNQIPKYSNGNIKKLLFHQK
Put plainly: Agonist activity at GR in human A549 cells transfected with luciferase gene linked to MMTV promoter assessed as luciferase transactivation activity after 24 hrs. The format is functional, cell-based.

The target of test [2] is T1, Glucocorticoid receptor. The test is described as follows: Activity at GR in human A549 cells by NF-kappaB transrepression assay. The format is cell-based.
Test [3] concerns the target T1, Glucocorticoid receptor. Put plainly: Displacement of fluorescent-labeled Dexamethasone from GR by fluorescent polarization assay.
Another test deals with T2, Androgen receptor (Homo sapiens, UniProt P10275).
T2 sequence (P10275 whole entry): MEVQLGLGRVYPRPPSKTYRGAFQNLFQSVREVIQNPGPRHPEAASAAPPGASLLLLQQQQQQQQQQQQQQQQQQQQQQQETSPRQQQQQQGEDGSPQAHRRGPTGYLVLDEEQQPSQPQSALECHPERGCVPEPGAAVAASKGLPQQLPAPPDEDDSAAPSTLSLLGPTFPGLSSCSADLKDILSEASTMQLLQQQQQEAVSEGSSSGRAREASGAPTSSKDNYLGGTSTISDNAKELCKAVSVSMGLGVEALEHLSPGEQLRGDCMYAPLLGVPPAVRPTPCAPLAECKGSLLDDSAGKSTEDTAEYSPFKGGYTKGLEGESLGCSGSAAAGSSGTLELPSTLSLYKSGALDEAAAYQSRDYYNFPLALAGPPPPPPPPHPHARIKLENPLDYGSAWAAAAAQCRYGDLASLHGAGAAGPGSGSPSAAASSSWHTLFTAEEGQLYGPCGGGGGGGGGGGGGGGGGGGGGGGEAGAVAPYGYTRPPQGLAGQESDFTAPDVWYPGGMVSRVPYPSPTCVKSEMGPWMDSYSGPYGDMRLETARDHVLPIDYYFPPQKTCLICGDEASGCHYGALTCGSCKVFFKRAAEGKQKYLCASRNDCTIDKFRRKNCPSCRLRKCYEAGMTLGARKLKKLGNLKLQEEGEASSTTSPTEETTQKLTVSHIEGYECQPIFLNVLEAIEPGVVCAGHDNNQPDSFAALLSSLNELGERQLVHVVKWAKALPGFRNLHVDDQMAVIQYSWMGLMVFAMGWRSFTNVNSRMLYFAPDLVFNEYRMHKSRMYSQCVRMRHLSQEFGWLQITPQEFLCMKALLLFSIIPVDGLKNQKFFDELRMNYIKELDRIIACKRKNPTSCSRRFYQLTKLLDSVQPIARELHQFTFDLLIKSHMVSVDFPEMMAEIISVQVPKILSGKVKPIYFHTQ

Another test has as its target T3, Progesterone receptor (Homo sapiens, UniProt P06401).
T3 sequence (P06401 whole entry): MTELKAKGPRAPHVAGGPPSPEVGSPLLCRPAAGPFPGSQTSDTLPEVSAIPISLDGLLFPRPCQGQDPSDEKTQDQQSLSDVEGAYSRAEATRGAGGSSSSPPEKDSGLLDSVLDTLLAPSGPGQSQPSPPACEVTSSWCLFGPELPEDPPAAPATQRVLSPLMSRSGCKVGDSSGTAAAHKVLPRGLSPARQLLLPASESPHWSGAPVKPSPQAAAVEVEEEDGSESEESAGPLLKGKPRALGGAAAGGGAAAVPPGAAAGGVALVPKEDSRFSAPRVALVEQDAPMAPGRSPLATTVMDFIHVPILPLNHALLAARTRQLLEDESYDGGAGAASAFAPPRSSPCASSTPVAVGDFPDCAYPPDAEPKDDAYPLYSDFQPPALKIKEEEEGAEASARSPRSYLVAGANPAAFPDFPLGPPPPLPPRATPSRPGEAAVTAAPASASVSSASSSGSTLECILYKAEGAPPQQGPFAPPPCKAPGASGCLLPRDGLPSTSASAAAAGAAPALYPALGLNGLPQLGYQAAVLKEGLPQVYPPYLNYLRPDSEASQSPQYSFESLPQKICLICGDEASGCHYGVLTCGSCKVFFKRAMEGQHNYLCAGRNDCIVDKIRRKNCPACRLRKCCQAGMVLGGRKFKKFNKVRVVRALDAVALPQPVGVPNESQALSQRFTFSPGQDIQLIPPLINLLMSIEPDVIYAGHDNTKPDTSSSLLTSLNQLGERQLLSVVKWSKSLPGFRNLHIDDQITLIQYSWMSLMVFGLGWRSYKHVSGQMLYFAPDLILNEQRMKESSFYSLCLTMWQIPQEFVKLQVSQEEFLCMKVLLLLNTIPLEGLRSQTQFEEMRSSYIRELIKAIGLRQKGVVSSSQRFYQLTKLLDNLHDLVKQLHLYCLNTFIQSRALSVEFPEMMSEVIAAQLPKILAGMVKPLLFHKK
The test is described as follows: Binding affinity to PR.

Test [4] addresses T1, Glucocorticoid receptor. Put plainly: Antagonist activity at GR in human A549 cells transfected with luciferase gene linked to MMTV promoter assessed as inhibition of dexamethasone-induced luciferase transactivation activity after 24 hrs. The format is functional, cell-based.

A word on the EC50: it is the concentration at which the effect is half-maximal. By IC50 is commonly meant the concentration that gives 50% inhibition. `O=S(=O)(Nc1ccc(-c2ccc3c(cnn3-c3ccc(F)cc3)c2)c(C(F)(F)F)c1)c1ccsc1`: at Glucocorticoid receptor [1], the 50% effective concentration (EC50) was 251 nM. Further, the IC50 on Glucocorticoid receptor [2] was 100 nM; on Glucocorticoid receptor [3], 12.6 nM; at Androgen receptor, 2510 nM; on Progesterone receptor it was greater than 10000 nM.

As to `O=S(=O)(Nc1ccccc1)c1ccc(-c2ccc3c(cnn3-c3ccc(F)cc3)c2)c(C(F)(F)F)c1`, the IC50 at Glucocorticoid receptor [4] is 3160 nM; against Glucocorticoid receptor [2] it was greater than 10000 nM; at Glucocorticoid receptor [3], 25.1 nM; against Androgen receptor, greater than 10000 nM; on Progesterone receptor, greater than 10000 nM.

With `CN(c1ccccc1)S(=O)(=O)c1ccc(-c2ccc3c(cnn3-c3ccc(F)cc3)c2)c(C(F)(F)F)c1`, the concentration giving a half-maximal response (EC50) on Glucocorticoid receptor [1] was 631 nM. For the same molecule, the IC50 against Glucocorticoid receptor [2] is 398 nM; at Glucocorticoid receptor [3], 12.6 nM; against Androgen receptor, greater than 10000 nM; at Progesterone receptor, 794 nM.

As for `CC(C)S(=O)(=O)Nc1ccc(-c2ccc3c(cnn3-c3ccc(F)cc3)c2)c(C(F)(F)F)c1`, the EC50 at Glucocorticoid receptor [1] was 158 nM. Moreover, the half-inhibitory concentration (IC50) was 50.1 nM at Glucocorticoid receptor [2], 12.6 nM on Glucocorticoid receptor [3], greater than 10000 nM against Androgen receptor and greater than 10000 nM at Progesterone receptor.

`CC(C)(C)c1ccc(S(=O)(=O)Nc2ccc(-c3ccc4c(cnn4-c4ccc(F)cc4)c3)c(C(F)(F)F)c2)cc1`: the IC50 at Glucocorticoid receptor [4] is 10000 nM; at Glucocorticoid receptor [2] it was greater than 10000 nM; on Glucocorticoid receptor [3] it was 50.1 nM; on Androgen receptor, greater than 10000 nM; at Progesterone receptor, greater than 2510 nM.

Consider `COc1cccc(S(=O)(=O)Nc2ccc(-c3ccc4c(cnn4-c4ccc(F)cc4)c3)c(C(F)(F)F)c2)c1`, for which the EC50 at Glucocorticoid receptor [1] is 251 nM. Moreover, the concentration for half-maximal inhibition (IC50) is 79.4 nM at Glucocorticoid receptor [2], 15.8 nM at Glucocorticoid receptor [3], 3160 nM against Androgen receptor and greater than 10000 nM at Progesterone receptor.

`O=S(=O)(Nc1ccc(-c2ccc3c(cnn3-c3ccc(F)cc3)c2)c(C(F)(F)F)c1)c1cccc(C(F)(F)F)c1`: the EC50 at Glucocorticoid receptor [1] was 200 nM. Further, the IC50 was 63.1 nM at Glucocorticoid receptor [2], 50.1 nM on Glucocorticoid receptor [3], 3980 nM against Androgen receptor and greater than 10000 nM at Progesterone receptor.

For `CCCS(=O)(=O)Nc1ccc(-c2ccc3c(cnn3-c3ccc(F)cc3)c2)c(C(F)(F)F)c1`, the IC50 at Glucocorticoid receptor [4] is 2000 nM; against Glucocorticoid receptor [2], greater than 10000 nM; at Glucocorticoid receptor [3] it was 15.8 nM; against Androgen receptor, 3160 nM; on Progesterone receptor, greater than 10000 nM.

For `CC(C)c1cc(C(C)C)c(S(=O)(=O)Nc2ccc(-c3ccc4c(cnn4-c4ccc(F)cc4)c3)c(C(F)(F)F)c2)c(C(C)C)c1`, the IC50 on Glucocorticoid receptor [4] was greater than 10000 nM; against Glucocorticoid receptor [2], greater than 10000 nM; at Glucocorticoid receptor [3] it was 251 nM; against Androgen receptor it was greater than 10000 nM; at Progesterone receptor it was greater than 10000 nM.

Take `CCCNS(=O)(=O)c1ccc(-c2ccc3c(cnn3-c3ccc(F)cc3)c2)c(C(F)(F)F)c1`: the IC50 is 3160 nM on Glucocorticoid receptor [4]; greater than 10000 nM against Glucocorticoid receptor [2]; 31.6 nM at Glucocorticoid receptor [3]; 6310 nM on Androgen receptor; 794 nM at Progesterone receptor.

`CC(C)CNS(=O)(=O)c1ccc(-c2ccc3c(cnn3-c3ccc(F)cc3)c2)c(C(F)(F)F)c1`: the IC50 on Glucocorticoid receptor [4] is 3160 nM; at Glucocorticoid receptor [2], greater than 10000 nM; on Glucocorticoid receptor [3], 39.8 nM; against Androgen receptor it was 6310 nM; on Progesterone receptor it was 631 nM.

Regarding `CCNS(=O)(=O)c1ccc(-c2ccc3c(cnn3-c3ccc(F)cc3)c2)c(C(F)(F)F)c1`, the IC50 on Glucocorticoid receptor [4] is 2000 nM; at Glucocorticoid receptor [2], greater than 10000 nM; at Glucocorticoid receptor [3], 20 nM; against Androgen receptor, 3160 nM; at Progesterone receptor, 1580 nM.

For `O=S(=O)(Nc1ccc(-c2ccc3c(cnn3-c3ccc(F)cc3)c2)c(C(F)(F)F)c1)c1cccc(OC(F)(F)F)c1`, the EC50 at Glucocorticoid receptor [1] is 251 nM. The IC50 on Glucocorticoid receptor [2] is 79.4 nM; on Glucocorticoid receptor [3], 39.8 nM; at Androgen receptor it was greater than 10000 nM; on Progesterone receptor, greater than 10000 nM.

In the case of `O=S(=O)(NCCO)c1ccc(-c2ccc3c(cnn3-c3ccc(F)cc3)c2)c(C(F)(F)F)c1`, the IC50 on Glucocorticoid receptor [4] was 2000 nM; against Glucocorticoid receptor [2], greater than 10000 nM; on Glucocorticoid receptor [3], 15.8 nM; at Androgen receptor, 10000 nM; at Progesterone receptor, 5010 nM.

In the case of `CCN(c1ccccc1)S(=O)(=O)c1ccc(-c2ccc3c(cnn3-c3ccc(F)cc3)c2)c(C(F)(F)F)c1`, on Glucocorticoid receptor [1], the EC50 was 200 nM. In addition, the IC50 against Glucocorticoid receptor [2] is 126 nM; at Glucocorticoid receptor [3] it was 15.8 nM; against Androgen receptor it was greater than 10000 nM; on Progesterone receptor, greater than 10000 nM.

Take `CCCN(c1ccccc1)S(=O)(=O)c1ccc(-c2ccc3c(cnn3-c3ccc(F)cc3)c2)c(C(F)(F)F)c1`: the 50% effective concentration (EC50) at Glucocorticoid receptor [1] is 316 nM. Further, the 50% inhibitory concentration (IC50) against Glucocorticoid receptor [2] is 316 nM; at Glucocorticoid receptor [3], 15.8 nM; against Androgen receptor, greater than 10000 nM; on Progesterone receptor, greater than 10000 nM.

As for `CC(C)N(c1ccccc1)S(=O)(=O)c1ccc(-c2ccc3c(cnn3-c3ccc(F)cc3)c2)c(C(F)(F)F)c1`, the concentration for a half-maximal effect (EC50) on Glucocorticoid receptor [1] is 126 nM. The 50% inhibitory concentration (IC50) at Glucocorticoid receptor [2] is 50.1 nM; on Glucocorticoid receptor [3] it was 15.8 nM; at Androgen receptor it was greater than 10000 nM; at Progesterone receptor, greater than 2510 nM.

For `CCCCN(c1ccccc1)S(=O)(=O)c1ccc(-c2ccc3c(cnn3-c3ccc(F)cc3)c2)c(C(F)(F)F)c1`, at Glucocorticoid receptor [1], the EC50 was greater than 10000 nM. Also, the IC50 was greater than 10000 nM against Glucocorticoid receptor [2], 25.1 nM on Glucocorticoid receptor [3], greater than 10000 nM against Androgen receptor and greater than 10000 nM at Progesterone receptor.

Source of the values: ChEMBL document CHEMBL1155531, “Structure guided design of 5-arylindazole glucocorticoid receptor agonists and antagonists” (J Med Chem, 2010).
